pIC50: −log10 of the molar value. Where two headings read alike, the source gives them in different places.
How the values were obtained:
[1] = biological target: T1, arginine methyltransferase CARM1 (Homo sapiens, UniProt Q86X55); assay: Filterbinding and gel (fluorography) HMTase assay against CARM1; format: biochemical
T1 sequence (Q86X55 1-608): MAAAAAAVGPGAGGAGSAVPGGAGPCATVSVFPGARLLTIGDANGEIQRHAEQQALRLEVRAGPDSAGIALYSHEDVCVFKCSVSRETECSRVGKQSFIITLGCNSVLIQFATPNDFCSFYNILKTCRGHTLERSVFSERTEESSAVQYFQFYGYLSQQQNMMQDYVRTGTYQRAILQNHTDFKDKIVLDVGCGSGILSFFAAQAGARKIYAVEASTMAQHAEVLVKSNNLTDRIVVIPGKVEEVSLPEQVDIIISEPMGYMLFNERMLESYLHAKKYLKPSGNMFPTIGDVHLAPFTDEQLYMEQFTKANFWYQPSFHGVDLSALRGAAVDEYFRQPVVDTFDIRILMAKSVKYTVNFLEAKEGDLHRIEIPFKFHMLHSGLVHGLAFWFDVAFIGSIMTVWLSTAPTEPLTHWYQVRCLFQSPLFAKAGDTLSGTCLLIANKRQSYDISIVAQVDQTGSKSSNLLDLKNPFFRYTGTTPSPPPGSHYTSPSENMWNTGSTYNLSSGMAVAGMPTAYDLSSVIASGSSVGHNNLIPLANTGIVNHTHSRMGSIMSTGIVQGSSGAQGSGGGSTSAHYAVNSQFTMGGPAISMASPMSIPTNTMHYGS
Excerpt: (§1) FIG. 1a: Effect of LTK20 on Histone Modifying Enzymes (Filterbinding Assay) Filterbinding Assay of LTK20 carried out with the Histone acetyltransferases p300, PCAF and Histone methyltransferases CARM1, G9a. Lane 1—histones alone, lane 2—Enzyme control, lane 3—DMSO control, lane 4-5, LTK20 in increasing concentration.
(§2) FIG. 1b: Effect of LTK20 on Histone Modifying Enzymes (Fluorography) Gel Assay of LTK20 carried out with Histone acetyltransferases p300, PCAF and Histone methyltransferases CARM1, G9a. Lane 1—histones alone, lane 2—Enzyme control, lane 3—DMSO control, lane 4 & 5—LTK20 in increasing concentration.
(§3) (2,3,7,8-TETRAHYDROXY[1]BENZOPYRANO[5,4,3(DE)[1]BENZOPYRAN5,10-DIONE) was identified as a specific inhibitor of the arginine methyltransferase CARM1 with an IC50 of 20 μM, both by filterbinding (FIG. 1a) and fluorography assays (FIG. 1b).

[2] = biological target: T2, lysine methyltransferase G9a (Homo sapiens, UniProt Q96KQ7); assay: Filterbinding and gel (fluorography) HMTase assay against G9a; format: biochemical
T2 sequence (Q96KQ7 1-1210): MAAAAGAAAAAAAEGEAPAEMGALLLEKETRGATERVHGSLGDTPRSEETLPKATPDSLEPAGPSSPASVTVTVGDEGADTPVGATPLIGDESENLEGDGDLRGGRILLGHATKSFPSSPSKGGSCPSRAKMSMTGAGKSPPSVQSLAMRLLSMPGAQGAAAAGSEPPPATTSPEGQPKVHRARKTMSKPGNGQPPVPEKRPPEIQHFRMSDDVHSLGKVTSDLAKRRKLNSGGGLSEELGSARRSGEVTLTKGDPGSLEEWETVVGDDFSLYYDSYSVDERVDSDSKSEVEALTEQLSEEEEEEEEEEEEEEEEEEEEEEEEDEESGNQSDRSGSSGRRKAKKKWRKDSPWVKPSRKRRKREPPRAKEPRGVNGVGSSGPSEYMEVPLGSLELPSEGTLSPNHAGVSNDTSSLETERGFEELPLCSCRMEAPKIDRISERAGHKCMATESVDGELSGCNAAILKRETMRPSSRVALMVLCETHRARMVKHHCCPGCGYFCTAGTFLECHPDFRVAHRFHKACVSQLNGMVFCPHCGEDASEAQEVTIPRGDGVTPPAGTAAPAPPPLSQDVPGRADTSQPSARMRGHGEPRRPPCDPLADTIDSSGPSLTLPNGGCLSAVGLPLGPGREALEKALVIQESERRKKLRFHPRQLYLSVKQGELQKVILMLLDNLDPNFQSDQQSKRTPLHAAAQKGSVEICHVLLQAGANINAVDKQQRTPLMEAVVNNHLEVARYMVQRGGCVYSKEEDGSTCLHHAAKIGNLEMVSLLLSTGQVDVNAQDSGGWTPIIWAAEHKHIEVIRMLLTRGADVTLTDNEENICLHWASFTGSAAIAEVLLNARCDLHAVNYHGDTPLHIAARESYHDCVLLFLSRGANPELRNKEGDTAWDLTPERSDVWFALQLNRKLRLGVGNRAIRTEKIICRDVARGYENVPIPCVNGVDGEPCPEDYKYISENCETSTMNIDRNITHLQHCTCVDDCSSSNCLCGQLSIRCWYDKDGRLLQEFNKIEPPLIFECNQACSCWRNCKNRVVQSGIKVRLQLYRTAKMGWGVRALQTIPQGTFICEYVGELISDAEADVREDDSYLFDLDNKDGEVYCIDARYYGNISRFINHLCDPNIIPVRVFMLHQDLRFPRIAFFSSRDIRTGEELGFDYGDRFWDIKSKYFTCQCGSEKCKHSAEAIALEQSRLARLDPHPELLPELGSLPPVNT
Excerpt: as §1, §2, §3

[3] = biological target: histone acetyltransferase p300 (Homo sapiens, UniProt Q09472); assay: Filterbinding and gel (fluorography) HAT assay against p300; format: biochemical
Excerpt: as §1, §2, §3

[4] = biological target: histone acetyltransferase PCAF (Homo sapiens, UniProt Q92831); assay: Filterbinding and gel (fluorography) HAT assay against PCAF; format: biochemical
Excerpt: as §1, §2, §3

CARM1 [5] = biological target: T3, CARM1 (Homo sapiens, UniProt Q86X55); assay: Kinetic analysis of the pattern of inhibition of CARM1 methylation of histone H3; format: biochemical; conditions: recombinant histone H3 and tritiated SAM varied; two inhibitor concentrations
T3 sequence (Q86X55 1-608): T1 sequence (Q86X55 1-608)
Description: Since the inhibitor is specific to CARM1 mediated methylation of histones which is directed to the histone H3, histone H3 was used as the substrate for the kinetic analysis. Initially, the inhibition was confirmed using the recombinant histone as the substrate. CARM1 methylation reaction was carried out using increasing concentration of histone H3 and the methyl group donor, tritiated SAM keeping the enzyme concentration constant. Two different inhibitor concentrations were assayed.

histone H3 = histone H3 (Homo sapiens, UniProt P68431); assay: Isothermal Calorimetric Titration with substrate histone H3; format: binding; conditions: substrate in cell titrated against inhibitor
Excerpt: FIG. 2: Binding Isotherm of Histone H3 with LTK20 Isothermal Calorimetric Titration carried out with the protein histone H3 and the ligand LTK20, which is the inhibitor.
(§4) The pattern of inhibition is uncompetitive indicating the mode of inhibition is via the Enzyme-Substrate complex, the binding of the inhibitor has been characterized by Isothermal Calorimetric Titration wherein either the substrate (histone H3) or enzyme (CARM1) was taken in the cell and titrated against the inhibitor (2,3,7,8TETRAHYDROXY[1]BENZOPYRANO[5,4,3(DE)[1]BENZOPYRAN5,10-DIONE).

CARM1 [6] = biological target: T3, CARM1; assay: Isothermal Calorimetric Titration with enzyme CARM1; format: binding; conditions: enzyme in cell titrated against inhibitor
Excerpt: as §4

[7] = biological target: CARM1 methylation sites on histone H3, R17 and R26 (Homo sapiens, UniProt P68431); assay: In vitro CARM1 methylation reaction, western analysis with site-specific antibodies; format: biochemical
Description: (§5) FIGS. 3a and 3b: Preferential Inhibition of CARM1 Mediated Methylation Site-specific inhibition of arginine methylation of histone H3 observed in the presence of LTK20 both in vitro and in vivo. H3R17 and H3R26 are both CARM1 methylation sites on histone H3.
In vitro CARM1 methylation reaction was carried out in the presence or absence of inhibitors, and probed with antibodies against the specific CARM1 methylation sites on histone H3, R17 and R26.

[8] = system: CARM1 methylation sites on histone H3, R17 and R26 in HeLa cells; assay: HeLa cells, western analysis of acid extracted histones; format: cell-based; conditions: for Methylation of H3R17: 50 μM, 24 hours
Description: as §5
In vivo characterization was done by treating HeLa cells with the molecule at 50 μM concentration for a period of 24 hours, and the acid extracted histones were probed with antibodies against CARM1 methylation sites on histone H3, R17 and R26.

[9] = system: CARM1 methylation sites on histone H3, R17 and R26 in HeLa cells; assay: HeLa cells, immunofluorescence analysis; format: cell-based; conditions: 50 μM, 24 hours
Description: FIGS. 3c and 3d: Immunofluorescence Analysis of LTK20 Treated HeLa Cells
In vivo characterization was done by treating HeLa cells with the molecule at 50 μM concentration for a period of 24 hours, and the cells were probed with antibodies against CARM1 methylation sites on histone H3, R17 and R26 and were visualized by anti rabbit alexa fluor 488 antibody.

U2OS cells = assay: Modulation of p53 and p21 protein levels in U2OS cells by western analysis; format: cell-based; conditions: for p21 levels: UV irradiated U2OS cells, vs DMSO control
Excerpt: FIG. 4: Immunoblot Analysis with p21 Antibody UV irradiated U2OS cells treated with or without inhibitors. The lysate was probed with antibody against p21. p21 levels show an increase in the presence of LTK20 as compared to the DMSO control.
Physiological effect of the inhibitor was characterized by selecting the p53 system, since CARM1 mediated histone methylation is known to cooperatively enhance the transcriptional activation of p53 responsive genes. […] U2OS, which is a p53 positive cell line was used for the assay, and on treatment with molecule at 50 μM concentration for a period of 24 hours, p53 levels were altered. Since, the p53 responsive genes had to be assayed, p21 was selected (there is no apoptosis, therefore the apoptosis genes were not selected). UV irradiated cells were treated with (2,3,7,8-TETRAHYDROXY[1]BENZOPYRANO[5,4,3(DE)[1]BENZOPYRAN5,10-DIONE) for a period of 24 hours and the lysate was probed with antibody against p21. […] This clearly indicates a possible implication of this molecule in the tumor suppressor p53 mediated transcriptional activation.

[10] = filterbinding, HeLa core histones
[11] = listed as (2,3,7,8-TETRAHYDROXY[1]BENZOPYRANO[5,4,3(DE)[1]BENZOPYRAN5,10-DIONE)

histone acetyltransferase p300, sequence (Q09472 whole entry): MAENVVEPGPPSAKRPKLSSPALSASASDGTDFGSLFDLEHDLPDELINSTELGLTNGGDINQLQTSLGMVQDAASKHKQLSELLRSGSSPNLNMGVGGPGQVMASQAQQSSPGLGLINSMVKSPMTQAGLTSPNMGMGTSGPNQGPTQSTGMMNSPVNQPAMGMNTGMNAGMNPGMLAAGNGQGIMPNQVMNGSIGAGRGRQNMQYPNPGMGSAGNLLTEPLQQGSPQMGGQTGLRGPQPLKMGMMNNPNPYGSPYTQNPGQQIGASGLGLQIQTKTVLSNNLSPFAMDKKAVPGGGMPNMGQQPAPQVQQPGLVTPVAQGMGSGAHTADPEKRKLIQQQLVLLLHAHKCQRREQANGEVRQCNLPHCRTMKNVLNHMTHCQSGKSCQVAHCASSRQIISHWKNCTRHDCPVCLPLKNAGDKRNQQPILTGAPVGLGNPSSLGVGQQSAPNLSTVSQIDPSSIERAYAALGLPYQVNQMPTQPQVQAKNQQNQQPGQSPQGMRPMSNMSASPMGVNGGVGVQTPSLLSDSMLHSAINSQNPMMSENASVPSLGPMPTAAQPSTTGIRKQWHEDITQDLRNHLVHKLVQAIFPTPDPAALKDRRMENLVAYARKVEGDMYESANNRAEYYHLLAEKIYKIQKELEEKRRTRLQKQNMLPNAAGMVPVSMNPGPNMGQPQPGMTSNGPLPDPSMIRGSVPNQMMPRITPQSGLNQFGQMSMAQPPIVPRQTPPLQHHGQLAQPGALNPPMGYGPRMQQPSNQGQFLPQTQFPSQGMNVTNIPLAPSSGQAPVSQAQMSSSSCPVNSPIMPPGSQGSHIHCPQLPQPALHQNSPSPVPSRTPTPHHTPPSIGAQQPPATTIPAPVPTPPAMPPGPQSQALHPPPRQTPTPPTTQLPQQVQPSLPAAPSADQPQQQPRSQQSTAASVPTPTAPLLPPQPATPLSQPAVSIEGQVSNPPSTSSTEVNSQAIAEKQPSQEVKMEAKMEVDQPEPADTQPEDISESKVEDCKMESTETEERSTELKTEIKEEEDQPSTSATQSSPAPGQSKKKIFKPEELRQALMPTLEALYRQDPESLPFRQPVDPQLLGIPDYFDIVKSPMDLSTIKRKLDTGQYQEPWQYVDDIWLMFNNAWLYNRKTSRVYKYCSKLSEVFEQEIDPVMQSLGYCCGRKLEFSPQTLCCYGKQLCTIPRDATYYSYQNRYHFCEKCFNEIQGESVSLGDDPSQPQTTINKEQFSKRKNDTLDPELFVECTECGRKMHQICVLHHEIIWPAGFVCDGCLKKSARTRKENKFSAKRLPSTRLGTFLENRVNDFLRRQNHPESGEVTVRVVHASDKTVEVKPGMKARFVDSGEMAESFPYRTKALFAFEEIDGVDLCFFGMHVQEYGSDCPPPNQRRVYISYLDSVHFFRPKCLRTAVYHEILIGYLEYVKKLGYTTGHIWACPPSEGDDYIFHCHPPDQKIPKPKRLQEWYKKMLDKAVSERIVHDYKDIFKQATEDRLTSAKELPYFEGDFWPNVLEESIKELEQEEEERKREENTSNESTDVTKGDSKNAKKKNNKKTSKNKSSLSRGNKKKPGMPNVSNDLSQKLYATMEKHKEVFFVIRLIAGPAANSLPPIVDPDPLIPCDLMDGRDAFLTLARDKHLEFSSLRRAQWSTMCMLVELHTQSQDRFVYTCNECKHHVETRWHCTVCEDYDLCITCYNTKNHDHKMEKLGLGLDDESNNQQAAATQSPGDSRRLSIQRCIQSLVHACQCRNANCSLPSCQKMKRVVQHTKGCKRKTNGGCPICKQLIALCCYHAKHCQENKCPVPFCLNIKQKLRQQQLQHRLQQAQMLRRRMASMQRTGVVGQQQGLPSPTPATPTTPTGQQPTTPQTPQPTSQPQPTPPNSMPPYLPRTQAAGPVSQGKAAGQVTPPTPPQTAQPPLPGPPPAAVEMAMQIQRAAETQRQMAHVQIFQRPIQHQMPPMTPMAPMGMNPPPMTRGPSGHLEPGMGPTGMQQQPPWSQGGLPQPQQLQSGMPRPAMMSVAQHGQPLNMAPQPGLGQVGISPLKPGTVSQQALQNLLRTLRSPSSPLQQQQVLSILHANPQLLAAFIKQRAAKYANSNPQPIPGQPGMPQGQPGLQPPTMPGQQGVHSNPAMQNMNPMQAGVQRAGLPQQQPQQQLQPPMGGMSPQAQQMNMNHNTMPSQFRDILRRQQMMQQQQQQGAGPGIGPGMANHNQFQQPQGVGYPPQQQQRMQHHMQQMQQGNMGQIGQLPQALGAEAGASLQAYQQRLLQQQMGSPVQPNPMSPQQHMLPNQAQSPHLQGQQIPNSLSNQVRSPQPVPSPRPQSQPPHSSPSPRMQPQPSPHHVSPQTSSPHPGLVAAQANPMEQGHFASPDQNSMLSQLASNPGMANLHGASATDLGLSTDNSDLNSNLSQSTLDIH
histone acetyltransferase PCAF, sequence (Q92831 whole entry): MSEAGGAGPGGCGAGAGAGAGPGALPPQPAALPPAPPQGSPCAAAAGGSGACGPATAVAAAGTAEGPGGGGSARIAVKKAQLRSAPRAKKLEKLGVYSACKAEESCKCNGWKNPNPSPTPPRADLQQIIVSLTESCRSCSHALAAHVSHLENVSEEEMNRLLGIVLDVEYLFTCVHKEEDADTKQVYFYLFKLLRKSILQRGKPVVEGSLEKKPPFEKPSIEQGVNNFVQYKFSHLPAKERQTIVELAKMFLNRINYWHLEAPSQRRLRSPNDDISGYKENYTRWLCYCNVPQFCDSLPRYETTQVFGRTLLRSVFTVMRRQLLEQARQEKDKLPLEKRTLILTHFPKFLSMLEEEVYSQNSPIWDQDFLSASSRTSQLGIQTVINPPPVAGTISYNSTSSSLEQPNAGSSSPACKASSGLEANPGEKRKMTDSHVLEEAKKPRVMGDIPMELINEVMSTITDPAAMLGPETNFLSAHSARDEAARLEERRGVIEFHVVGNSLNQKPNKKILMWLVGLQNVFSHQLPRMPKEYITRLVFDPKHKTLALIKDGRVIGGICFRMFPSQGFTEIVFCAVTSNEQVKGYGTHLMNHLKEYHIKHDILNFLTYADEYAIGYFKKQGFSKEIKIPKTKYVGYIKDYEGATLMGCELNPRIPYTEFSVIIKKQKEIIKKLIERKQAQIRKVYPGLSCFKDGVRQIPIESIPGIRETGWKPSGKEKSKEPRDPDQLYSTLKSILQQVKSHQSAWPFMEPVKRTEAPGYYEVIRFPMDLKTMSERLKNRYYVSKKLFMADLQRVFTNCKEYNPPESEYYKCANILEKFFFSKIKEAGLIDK

O=c1oc2c(O)c(O)cc3c(=O)oc4c(O)c(O)cc1c4c23 [LTK20, (2,3,7,8-TETRAHYDROXY[1]BENZOPYRANO [5,4,3(DE)[1]BENZOPYRAN 5,10-DIONE)]
pIC50 ([1]; HeLa core histones as substrate, both filterbinding and fluorography assays): 4.70 | Effect on CARM1 activity (filterbinding assay) [1, 10]: inhibits CARM1 activity | Effect on CARM1 activity (gel assay, fluorography) ([1]; fluorography): inhibits CARM1 activity | Effect on G9a activity (filterbinding assay) [2, 10]: does not act on other enzymes | Effect on G9a activity (gel assay, fluorography) ([2]; fluorography): does not act on other enzymes | Effect on p300 activity (filterbinding assay) ([3]; filterbinding): does not act on other enzymes | Effect on p300 activity (gel assay, fluorography) ([3]; fluorography): does not act on other enzymes | Effect on PCAF activity (filterbinding assay) ([4]; filterbinding): does not act on other enzymes | Effect on PCAF activity (gel assay, fluorography) ([4]; fluorography): does not act on other enzymes | Pattern of CARM1 methylation inhibition (CARM1 [5]): uncompetitive | Binding to histone H3 (ITC) (histone H3): fits to the two sequential binding site model | Binding to histone H3 (ITC) (histone H3; listed as (2,3,7,8TETRAHYDROXY[1]BENZOPYRANO[5,4,3(DE)[1]BENZOPYRAN5,10-DIONE)): binds to the substrate at two sequential binding sites | Binding to CARM1 (ITC) (CARM1 [6]): no binding of the molecule to the enzyme | Methylation of H3R17 [7]: inhibited | Methylation of H3R26 [7]: getting methylated | Methylation of H3R17 [7, 11]: Site-specific inhibition of H3R17 | Methylation of H3R26 [8]: getting methylated | Methylation of H3R17 [8]: inhibited | Methylation of H3R17 [8, 11]: Site-specific inhibition of H3R17 | Methylation of H3R17 [9]: Site-specific inhibition of H3R17 | Apoptosis (U2OS cells; U2OS cells): no apoptosis | p53 levels (U2OS cells; U2OS, 50 μM, 24 hours): altered | p21 levels (U2OS cells; 24 hours): increase | p21 levels (U2OS cells; 24 hours, listed as (2,3,7,8-TETRAHYDROXY[1]BENZOPYRANO[5,4,3(DE)[1]BENZOPYRAN5,10-DIONE)): increase in p21 levels

Source: patent publication US8003698B2, “Site-specific inhibitors of histone methyltransferase (HMTASE) and process of preparation thereof” (Jawaharlal Nehru Centre for Advanced Scientific Research, priority 2006, dated 2011)
